Results as given in patent US20240400564A1 (Syndax Pharmaceuticals, Inc, priority 2021, published 2024).

Molecular target: hERG (Homo sapiens, UniProt Q12809)
Assay: Patch clamp assay (hERG tail currents, whole-cell)

hERG, sequence (Q12809 whole entry): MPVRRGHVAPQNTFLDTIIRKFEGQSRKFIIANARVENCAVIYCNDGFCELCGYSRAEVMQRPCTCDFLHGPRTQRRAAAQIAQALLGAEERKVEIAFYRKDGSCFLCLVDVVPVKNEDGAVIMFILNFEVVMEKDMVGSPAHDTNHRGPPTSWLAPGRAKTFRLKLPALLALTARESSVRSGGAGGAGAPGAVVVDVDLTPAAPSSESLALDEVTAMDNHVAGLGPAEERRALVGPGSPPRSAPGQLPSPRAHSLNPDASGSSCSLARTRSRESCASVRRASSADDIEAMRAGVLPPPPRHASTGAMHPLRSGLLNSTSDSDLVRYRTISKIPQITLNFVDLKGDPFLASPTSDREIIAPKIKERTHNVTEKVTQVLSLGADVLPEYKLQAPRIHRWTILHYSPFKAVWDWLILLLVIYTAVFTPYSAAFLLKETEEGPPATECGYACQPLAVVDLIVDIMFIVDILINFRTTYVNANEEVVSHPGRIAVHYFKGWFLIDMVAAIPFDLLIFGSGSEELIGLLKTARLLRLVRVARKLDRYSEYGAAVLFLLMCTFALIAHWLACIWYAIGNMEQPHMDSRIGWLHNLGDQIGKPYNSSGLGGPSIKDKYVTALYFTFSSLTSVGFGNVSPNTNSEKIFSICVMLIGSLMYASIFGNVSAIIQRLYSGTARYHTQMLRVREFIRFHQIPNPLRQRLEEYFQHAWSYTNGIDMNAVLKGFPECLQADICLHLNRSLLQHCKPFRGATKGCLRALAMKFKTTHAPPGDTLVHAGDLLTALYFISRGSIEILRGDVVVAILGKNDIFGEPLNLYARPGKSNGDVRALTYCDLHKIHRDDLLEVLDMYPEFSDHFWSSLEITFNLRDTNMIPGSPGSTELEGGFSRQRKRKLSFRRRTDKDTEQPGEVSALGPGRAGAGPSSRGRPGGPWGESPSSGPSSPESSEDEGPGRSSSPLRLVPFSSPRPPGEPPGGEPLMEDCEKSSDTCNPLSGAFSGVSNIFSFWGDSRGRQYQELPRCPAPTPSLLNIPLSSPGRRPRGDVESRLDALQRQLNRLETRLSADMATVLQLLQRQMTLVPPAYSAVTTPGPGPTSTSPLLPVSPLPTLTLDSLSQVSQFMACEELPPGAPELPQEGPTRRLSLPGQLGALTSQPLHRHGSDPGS

Row | Compound | hERG % Remaining (10 μM compound) | hERG % Remaining (30 μM compound)
1 | CCN(CC)S(=O)(=O)N[C@@H]1CC[C@@H](CN2CCC3(CC2)CN(c2ncncc2Oc2ccc(F)cc2C(=O)N(CC(F)F)C(C)C)C3)OC1 [Example 97, 2-((4-(7-(((2S,5R)-5-((N,N-Diethylsulfamoyl)amino)tetrahydro-2H-pyran-2-yl)methyl)-2,7-diazaspiro[3.5]nonan-2-yl)pyrimidin-5-yl)oxy)-N-(2,2-difluoroethyl)-5-fluoro-N-isopropylbenzamide] | ++ (233% and ≤66%) | + (<33%)
2 | CC(C)N(CC(F)F)C(=O)c1cc(F)ccc1Oc1cncnc1N1CC2(CCN(C[C@@H]3CC[C@@H](NS(=O)(=O)N4CCC4)CO3)CC2)C1 [Example 99, 2-((4-(7-(((2S,5R)-5-(Azetidine-1-sulfonamido)tetrahydro-2H-pyran-2-yl)methyl)-2,7-diazaspiro[3.5]nonan-2-yl)pyrimidin-5-yl)oxy)-N-(2,2-difluoroethyl)-5-fluoro-N-isopropylbenzamide] | +++ (≥66%) | ++ (233% and ≤66%)
3 | CC(C)N(CC(F)F)C(=O)c1cc(F)ccc1Oc1cncnc1N1CC2(CCN(C[C@@H]3CC[C@@H](NS(=O)(=O)N(C)C(C)C)CO3)CC2)C1 [Example 101, N-(2,2-Difluoroethyl)-5-fluoro-N-isopropyl-2-((4-(7-(((2S,5R)-5-((N-isopropyl-N-methylsulfamoyl)amino)tetrahydro-2H-pyran-2-yl)methyl)-2,7-diazaspiro[3.5]nonan-2-yl)pyrimidin-5-yl)oxy)benzamide] |  | + (<33%)
4 | CNS(=O)(=O)N[C@@H]1CC[C@@H](CN2CCC3(CC2)CN(c2ncncc2Oc2ccc(F)cc2C(=O)N(CC(F)F)C(C)C)C3)OC1 [Example 102, N-(2,2-Difluoroethyl)-5-fluoro-N-isopropyl-2-((4-(7-(((2S,5R)-5-((N-methylsulfamoyl)amino)tetrahydro-2H-pyran-2-yl)methyl)-2,7-diazaspiro[3.5]nonan-2-yl)pyrimidin-5-yl)oxy)benzamide] |  | +++ (≥66%)
5 | CC(C)N(CC(F)(F)F)C(=O)c1cc(F)ccc1Oc1cncnc1N1CC2(CCN(C[C@@H]3CC[C@@H](NS(=O)(=O)N(C)C)CO3)CC2)C1 [Example 107, 2-((4-(7-(((2S,5R)-5-((N,N-Dimethylsulfamoyl)amino)tetrahydro-2H-pyran-2-yl)methyl)-2,7-diazaspiro[3.5]nonan-2-yl)pyrimidin-5-yl)oxy)-5-fluoro-N-isopropyl-N-(2,2,2-trifluoroethyl)benzamide] | +++ (≥66%) | ++ (233% and ≤66%)
6 | CC(C)N(C(=O)c1cc(F)ccc1Oc1cncnc1N1CC2(CCN(C[C@@H]3CC[C@@H](NS(=O)(=O)C4CC4)CO3)CC2)C1)C1CC(F)(F)C1 [Example 111, 2-((4-(7-(((2S,5R)-5-(Cyclopropanesulfonamido)tetrahydro-2H-pyran-2-yl)methyl)-2,7-diazaspiro[3.5]nonan-2-yl)pyrimidin-5-yl)oxy)-N-(3,3-difluorocyclobutyl)-5-fluoro-N-isopropylbenzamide] | ++ (233% and ≤66%) | + (<33%)
7 | CC(C)N(C(=O)c1cc(F)ccc1Oc1cncnc1N1CC2(CCN(C[C@@H]3CC[C@@H](NS(=O)(=O)N(C)C)CO3)CC2)C1)C1CC(F)(F)C1 [Example 113, N-(3,3-Difluorocyclobutyl)-2-((4-(7-(((2S,5R)-5-((N,N-dimethylsulfamoyl)amino)tetrahydro-2H-pyran-2-yl)methyl)-2,7-diazaspiro[3.5]nonan-2-yl)pyrimidin-5-yl)oxy)-5-fluoro-N-isopropylbenzamide] | +++ (≥66%) | ++ (233% and ≤66%)
8 | CCN(CC)S(=O)(=O)N[C@@H]1CC[C@@H](CN2CCC3(CC2)CN(c2ncncc2Oc2ccc(F)cc2C(=O)N(C(C)C)C2CC(F)(F)C2)C3)OC1 [Example 114, 2-((4-(7-(((2S,5R)-5-((N,N-Diethylsulfamoyl)amino)tetrahydro-2H-pyran-2-yl)methyl)-2,7-diazaspiro[3.5]nonan-2-yl)pyrimidin-5-yl)oxy)-N-(3,3-difluorocyclobutyl)-5-fluoro-N-isopropylbenzamide] | + (<33%) | + (<33%)
9 | CC(C)N(C(=O)c1cc(F)ccc1Oc1cncnc1N1CC2(CCN(C[C@@H]3CC[C@@H](NS(=O)(=O)N4CCC4)CO3)CC2)C1)C1CC(F)(F)C1 [Example 118, 2-((4-(7-(((2S,5R)-5-(Azetidine-1-sulfonamido)tetrahydro-2H-pyran-2-yl)methyl)-2,7-diazaspiro[3.5]nonan-2-yl)pyrimidin-5-yl)oxy)-N-(3,3-difluorocyclobutyl)-5-fluoro-N-isopropylbenzamide] | ++ (233% and ≤66%) | + (<33%)
10 | CC(C)N(C(=O)c1cc(F)ccc1Oc1cncnc1N1CC2(CCN(C[C@@H]3CC[C@@H](NS(=O)(=O)N(C)C(C)C)CO3)CC2)C1)C1CC(F)(F)C1 [Example 119, N-(3,3-Difluorocyclobutyl)-5-fluoro-N-isopropyl-2-((4-(7-(((2S,5R)-5-((N-isopropyl-N-methylsulfamoyl)amino)tetrahydro-2H-pyran-2-yl)methyl)-2,7-diazaspiro[3.5]nonan-2-yl)pyrimidin-5-yl)oxy)benzamide] |  | + (<33%)
11 | C[C@@H]1COC[C@@H](C)N1C(=O)c1cc(F)ccc1Oc1cncnc1N1CC2(CCN(C[C@@H]3CC[C@@H](NS(=O)(=O)c4ccccc4)CO3)CC2)C1 [Example 120, N-((3R,6S)-6-((2-(5-(2-((3R,5R)-3,5-Dimethylmorpholine-4-carbonyl)-4-fluorophenoxy)pyrimidin-4-yl)-2,7-diazaspiro[3.5]nonan-7-yl)methyl)tetrahydro-2H-pyran-3-yl)benzenesulfonamide] | +++ (≥66%) | ++ (233% and ≤66%)
12 | C[C@@H]1COC[C@@H](C)N1C(=O)c1cc(F)ccc1Oc1cncnc1N1CC2(CCN(C[C@@H]3CC[C@@H](NS(=O)(=O)N4CCC4)CO3)CC2)C1 [Example 121, N-((3R,6S)-6-((2-(5-(2-((3R,5R)-3,5-Dimethylmorpholine-4-carbonyl)-4-fluorophenoxy)pyrimidin-4-yl)-2,7-diazaspiro[3.5]nonan-7-yl)methyl)tetrahydro-2H-pyran-3-yl)azetidine-1-sulfonamide] |  | +++ (≥66%)
13 | Cc1nc(S(=O)(=O)N[C@@H]2CC[C@@H](CN3CCC4(CC3)CN(c3ncncc3Oc3ccc(F)cc3C(=O)N3[C@H](C)COC[C@H]3C)C4)OC2)cs1 [Example 122, N-((3R,6S)-6-((2-(5-(2-((3R,5R)-3,5-Dimethylmorpholine-4-carbonyl)-4-fluorophenoxy)pyrimidin-4-yl)-2,7-diazaspiro[3.5]nonan-7-yl)methyl)tetrahydro-2H-pyran-3-yl)-2-methylthiazole-4-sulfonamide] |  | +++ (≥66%)
